*1 amine or outer side, *2 acyl side, *3 side chain or, on linkers, in order; H or OH if unused. Where a SMILES comes first, the peptide text is derived from it. Side-chain parts run from the residue outwards. [ ]: non-standard residue; d: D form. The star is where a group is joined. γGlu = O=C(O)[C@H](CCC(=O)[*:2])N[*:1]; Stearoyl = CCCCCCCCCCCCCCCCCC(=O)*; Palmitoyl = CCCCCCCCCCCCCCCC(=O)*; Aib = CC(C)(N)C(=O)O
How the values were obtained:
Format in all cases: cell-based
Conditions in all cases: Table 7; cAMP formation
[1] = biological target: T1, human GLP-1 receptor (hGLP-1 R) (Homo sapiens, UniProt P43220); experiment: cAMP response of HEK-293 cells stably expressing human GLP-1 receptor (HTRF)
T1 construct: expressed in transfected cells
T1 sequence (P43220 24-463): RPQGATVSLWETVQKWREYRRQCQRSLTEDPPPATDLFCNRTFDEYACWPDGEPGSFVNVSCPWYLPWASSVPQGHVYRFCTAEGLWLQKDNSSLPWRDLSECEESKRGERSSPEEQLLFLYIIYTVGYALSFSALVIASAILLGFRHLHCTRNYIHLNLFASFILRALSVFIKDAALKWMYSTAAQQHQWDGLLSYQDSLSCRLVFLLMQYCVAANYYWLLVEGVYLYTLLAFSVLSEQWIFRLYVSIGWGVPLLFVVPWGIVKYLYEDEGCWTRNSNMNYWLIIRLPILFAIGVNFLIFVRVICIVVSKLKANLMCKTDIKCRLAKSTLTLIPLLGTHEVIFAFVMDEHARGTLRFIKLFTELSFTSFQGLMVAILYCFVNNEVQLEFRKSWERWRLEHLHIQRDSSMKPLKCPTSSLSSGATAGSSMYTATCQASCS
How it was run: (§1)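 Stably transfected HEK-293 cells, accutase-harvested; assay buffer 1×HBSS/20 mM HEPES/0.1% BSA/2 mM IBMX; 400000 cells/ml; compound 30 min, RT; cAMP by HTRF kit.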

[2] = biological target: T2, human GIP receptor (hGIP R) (Homo sapiens, UniProt P48546); experiment: cAMP response of HEK-293 cells stably expressing human GIP receptor (HTRF)
T2 construct: expressed in transfected cells
T2 sequence (P48546 22-466): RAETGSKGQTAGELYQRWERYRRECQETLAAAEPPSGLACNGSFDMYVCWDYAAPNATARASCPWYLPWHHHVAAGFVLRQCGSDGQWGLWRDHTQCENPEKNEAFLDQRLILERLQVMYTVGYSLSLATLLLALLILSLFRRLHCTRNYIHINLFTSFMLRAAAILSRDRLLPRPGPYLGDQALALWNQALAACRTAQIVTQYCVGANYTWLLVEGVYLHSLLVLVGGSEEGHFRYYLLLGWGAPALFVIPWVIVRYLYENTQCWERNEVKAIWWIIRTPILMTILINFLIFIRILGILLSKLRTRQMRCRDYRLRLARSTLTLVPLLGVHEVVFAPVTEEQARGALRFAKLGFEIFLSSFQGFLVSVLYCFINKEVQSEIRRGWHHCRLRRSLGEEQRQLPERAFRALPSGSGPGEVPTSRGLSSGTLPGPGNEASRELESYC
How it was run: as §1

[3] = biological target: T3, human glucagon receptor (hGLUC R) (Homo sapiens, UniProt P47871); experiment: cAMP response of HEK-293 cells stably expressing human glucagon receptor (HTRF)
T3 construct: expressed in transfected cells
T3 sequence (P47871 26-477): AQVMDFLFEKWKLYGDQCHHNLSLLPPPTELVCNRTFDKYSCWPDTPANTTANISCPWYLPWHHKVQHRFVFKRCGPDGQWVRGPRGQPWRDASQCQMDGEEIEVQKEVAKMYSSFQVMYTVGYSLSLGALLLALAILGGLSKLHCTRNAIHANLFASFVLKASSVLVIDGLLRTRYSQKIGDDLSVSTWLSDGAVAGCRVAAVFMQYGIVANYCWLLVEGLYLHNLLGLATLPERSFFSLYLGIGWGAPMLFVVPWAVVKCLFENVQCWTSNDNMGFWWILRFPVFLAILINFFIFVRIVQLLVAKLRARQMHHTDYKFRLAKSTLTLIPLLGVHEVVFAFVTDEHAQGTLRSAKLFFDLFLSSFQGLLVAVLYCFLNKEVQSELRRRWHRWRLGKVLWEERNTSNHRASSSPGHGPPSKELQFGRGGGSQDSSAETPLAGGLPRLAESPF
How it was run: as §1

Structure (SMILES)	EC50 [1]	EC50 [2]	EC50 [3]
CCCCCCCCCCCCCCCCCC(=O)N[C@@H](CCC(=O)NCCCC[C@H](NC(=O)[C@H](CCC(N)=O)NC(=O)[C@@H](NC(=O)[C@H](CO)NC(=O)[C@H](CC(C)C)NC(=O)[C@H](CC(=O)O)NC(=O)[C@H](CO)NC(=O)[C@@H](NC(=O)[C@H](Cc1ccccc1)NC(=O)[C@@H](NC(=O)CNC(=O)[C@H](Cc1c[nH]cn1)NC(=O)C(C)(C)NC(=O)[C@@H](N)Cc1ccc(O)cc1)[C@@H](C)O)[C@@H](C)O)[C@@H](C)CC)C(=O)N[C@@H](CCC(=O)O)C(=O)N[C@@H](CCCCN)C(=O)N[C@@H](CCCNC(=N)N)C(=O)N[C@@H](C)C(=O)N[C@@H](C)C(=O)N[C@@H](Cc1ccccc1)C(=O)N[C@@H](CCC(=O)O)C(=O)N[C@@H](Cc1ccccc1)C(=O)N[C@H](C(=O)N[C@@H](CCC(=O)O)C(=O)N[C@@H](Cc1c[nH]c2ccccc12)C(=O)N[C@@H](CC(C)C)C(=O)N[C@@H](CCCCN)C(=O)N[C@@H](CC(N)=O)C(=O)N[C@H](C(=O)NCC(=O)N1CCC[C@H]1C(=O)N[C@@H](CO)C(=O)N[C@@H](CO)C(=O)NCC(=O)N[C@@H](C)C(=O)N1CCC[C@H]1C(=O)N1CCC[C@H]1C(=O)N1CCC[C@H]1C(=O)N[C@@H](CO)C(N)=O)[C@@H](C)O)[C@@H](C)CC)C(=O)O [SEQ ID NO: 32, Y-Aib-H-G-T-F-T-S-D-L-S-I-Q-K(yE-x70)-EKRAAFEFIEWLKNTGPSSGAPPPS-NH2] (H-Y[Aib]HGTFTSDLSIQK([γGlu-Stearoyl])EKRAAFEFIEWLKNTGPSSGAPPPS-NH2)	0.0417 nM	0.0335 nM	0.0192 nM
CCCCCCCCCCCCCCCCCC(=O)N[C@@H](CCC(=O)NCCCC[C@H](NC(=O)[C@H](CCC(N)=O)NC(=O)[C@@H](NC(=O)[C@H](CO)NC(=O)[C@H](CC(C)C)NC(=O)[C@H](CC(=O)O)NC(=O)[C@H](CO)NC(=O)[C@@H](NC(=O)[C@H](Cc1ccccc1)NC(=O)[C@@H](NC(=O)CNC(=O)[C@H](CCC(=O)O)NC(=O)C(C)(C)NC(=O)[C@@H](N)Cc1ccc(O)cc1)[C@@H](C)O)[C@@H](C)O)[C@@H](C)CC)C(=O)N[C@@H](CCC(=O)O)C(=O)N[C@@H](CO)C(=O)N[C@@H](CCCCN)C(=O)N[C@@H](C)C(=O)N[C@@H](C)C(=O)NC(C)(C)C(=O)N[C@@H](CCC(=O)O)C(=O)N[C@@H](Cc1ccccc1)C(=O)N[C@H](C(=O)N[C@@H](CCC(=O)O)C(=O)N[C@@H](Cc1c[nH]c2ccccc12)C(=O)N[C@@H](CC(C)C)C(=O)N[C@@H](CCCCN)C(=O)N[C@@H](C)C(=O)NCC(=O)NCC(=O)N1CCC[C@H]1C(=O)N[C@@H](CO)C(=O)N[C@@H](CO)C(=O)NCC(=O)N[C@@H](C)C(=O)N1CCC[C@H]1C(=O)N1CCC[C@H]1C(=O)N1CCC[C@H]1C(=O)N[C@@H](CO)C(N)=O)[C@@H](C)CC)C(=O)O [SEQ ID NO: 29, Y-Aib-E-G-T-F-T-S-D-L-S-I-Q-K(yE-x70)-E-S-K-A-A-Aib-E-F-I-E-W-L-K-A-G-G-P-S-S-G-A-P-P-P-S-NH2] (H-Y[Aib]EGTFTSDLSIQK([γGlu-Stearoyl])ESKAA[Aib]EFIEWLKAGGPSSGAPPPS-NH2)	0.0072 nM	0.013 nM	15 nM
CCCCCCCCCCCCCCCC(=O)N[C@@H](CCC(=O)NCCCC[C@H](NC(=O)[C@H](CCC(N)=O)NC(=O)[C@@H](NC(=O)[C@H](CO)NC(=O)[C@H](CC(C)C)NC(=O)[C@H](CC(=O)O)NC(=O)[C@H](CO)NC(=O)[C@@H](NC(=O)[C@H](Cc1ccccc1)NC(=O)[C@@H](NC(=O)CNC(=O)[C@H](CCC(=O)O)NC(=O)C(C)(C)NC(=O)[C@@H](N)Cc1ccc(O)cc1)[C@@H](C)O)[C@@H](C)O)[C@@H](C)CC)C(=O)N[C@@H](CCC(=O)O)C(=O)N[C@@H](CCCCN)C(=O)N[C@@H](CCCNC(=N)N)C(=O)N[C@@H](C)C(=O)N[C@@H](C)C(=O)NC(C)(C)C(=O)N[C@@H](CCC(=O)O)C(=O)N[C@@H](Cc1ccccc1)C(=O)N[C@H](C(=O)N[C@@H](CCC(=O)O)C(=O)N[C@@H](Cc1c[nH]c2ccccc12)C(=O)N[C@@H](CC(C)C)C(=O)N[C@@H](CCCCN)C(=O)N[C@@H](CCCNC(=N)N)C(=O)N[C@@H](C)C(=O)NCC(=O)N1CCC[C@H]1C(=O)N[C@@H](CO)C(=O)N[C@@H](CO)C(=O)NCC(=O)N[C@@H](C)C(=O)N1CCC[C@H]1C(=O)N1CCC[C@H]1C(=O)N1CCC[C@H]1C(=O)N[C@@H](CO)C(N)=O)[C@@H](C)CC)C(=O)O [SEQ ID NO: 20, Y-Aib-E-G-T-F-T-S-D-L-S-I-Q-K(yE-x53)-E-K-R-A-A-Aib-E-F-I-E-W-L-K- R-A-G-P-S-S-G-A-P-P-P-S-NH2] (H-Y[Aib]EGTFTSDLSIQK([γGlu-Palmitoyl])EKRAA[Aib]EFIEWLKRAGPSSGAPPPS-NH2)	0.0082 nM	0.0163 nM	18.2 nM
CCCCCCCCCCCCCCCC(=O)N[C@@H](CCC(=O)NCCCC[C@H](NC(=O)[C@H](CCC(N)=O)NC(=O)[C@@H](NC(=O)[C@H](CO)NC(=O)[C@H](CC(C)C)NC(=O)[C@H](CC(=O)O)NC(=O)[C@H](CO)NC(=O)[C@@H](NC(=O)[C@H](Cc1ccccc1)NC(=O)[C@@H](NC(=O)CNC(=O)[C@H](CCC(N)=O)NC(=O)C(C)(C)NC(=O)[C@@H](N)Cc1ccc(O)cc1)[C@@H](C)O)[C@@H](C)O)[C@@H](C)CC)C(=O)N[C@@H](CCC(=O)O)C(=O)N[C@@H](CCCCN)C(=O)N[C@@H](C)C(=O)N[C@@H](C)C(=O)N[C@@H](C)C(=O)NC(C)(C)C(=O)N[C@@H](CCC(=O)O)C(=O)N[C@@H](Cc1ccccc1)C(=O)N[C@H](C(=O)N[C@@H](CCC(=O)O)C(=O)N[C@@H](Cc1c[nH]c2ccccc12)C(=O)N[C@@H](CC(C)C)C(=O)N[C@@H](CCCCN)C(=O)N[C@@H](CC(N)=O)C(=O)N[C@H](C(=O)NCC(=O)N1CCC[C@H]1C(=O)N[C@@H](CO)C(=O)N[C@@H](CO)C(=O)NCC(=O)N[C@@H](C)C(=O)N1CCC[C@H]1C(=O)N1CCC[C@H]1C(=O)N1CCC[C@H]1C(=O)N[C@@H](CO)C(N)=O)[C@@H](C)O)[C@@H](C)CC)C(=O)O [SEQ ID NO: 12, Y-Aib-Q-G-T-F-T-S-D-L-S-I-Q-K(yE-x53)-E-K-A-A-A-Aib-EFIEWLKNTGPSSGAPPPSN H2] (H-Y[Aib]QGTFTSDLSIQK([γGlu-Palmitoyl])EKAAA[Aib]EFIEWLKNTGPSSGAPPPS-NH2)	0.0055 nM	0.008 nM	0.139 nM
CCCCCCCCCCCCCCCC(=O)N[C@@H](CCC(=O)NCCCC[C@H](NC(=O)[C@H](CCC(N)=O)NC(=O)[C@@H](NC(=O)[C@H](CO)NC(=O)[C@H](CC(C)C)NC(=O)[C@H](CC(=O)O)NC(=O)[C@H](CO)NC(=O)[C@@H](NC(=O)[C@H](Cc1ccccc1)NC(=O)[C@@H](NC(=O)CNC(=O)[C@H](CCC(N)=O)NC(=O)C(C)(C)NC(=O)[C@@H](N)Cc1ccc(O)cc1)[C@@H](C)O)[C@@H](C)O)[C@@H](C)CC)C(=O)N[C@@H](CC(=O)O)C(=O)N[C@@H](CO)C(=O)N[C@@H](CCCNC(=N)N)C(=O)N[C@@H](C)C(=O)N[C@H](C(=O)N[C@@H](CCC(N)=O)C(=O)N[C@@H](CC(=O)O)C(=O)N[C@@H](Cc1ccccc1)C(=O)N[C@H](C(=O)N[C@@H](CCC(=O)O)C(=O)N[C@@H](Cc1c[nH]c2ccccc12)C(=O)N[C@@H](CC(C)C)C(=O)N[C@@H](CCCCN)C(=O)N[C@@H](C)C(=O)NCC(=O)NCC(=O)N1CCC[C@H]1C(=O)N[C@@H](CO)C(=O)N[C@@H](CO)C(=O)NCC(=O)N[C@@H](C)C(=O)N1CCC[C@H]1C(=O)N1CCC[C@H]1C(=O)N1CCC[C@H]1C(=O)N[C@@H](CO)C(N)=O)[C@@H](C)CC)C(C)C)C(=O)O [SEQ ID NO: 50, Y-Aib-Q-G-T-F-T-S-D-L-S-I-Q-K(yE-x53)-DSRAVQDFIEWLKAGGPSSGAPPPS-NH2] (H-Y[Aib]QGTFTSDLSIQK([γGlu-Palmitoyl])DSRAVQDFIEWLKAGGPSSGAPPPS-NH2)	0.01 nM	0.0479 nM	1.72 nM
CCCCCCCCCCCCCCCC(=O)N[C@@H](CCC(=O)NCCCC[C@H](NC(=O)[C@H](CCC(N)=O)NC(=O)[C@@H](NC(=O)[C@H](CO)NC(=O)[C@H](CC(C)C)NC(=O)[C@H](CC(=O)O)NC(=O)[C@H](CO)NC(=O)[C@@H](NC(=O)[C@H](Cc1ccccc1)NC(=O)[C@@H](NC(=O)CNC(=O)[C@H](CCC(N)=O)NC(=O)C(C)(C)NC(=O)[C@@H](N)Cc1ccc(O)cc1)[C@@H](C)O)[C@@H](C)O)[C@@H](C)CC)C(=O)N[C@@H](CC(=O)O)C(=O)N[C@@H](CCCCN)C(=O)N[C@@H](CCCNC(=N)N)C(=O)N[C@@H](C)C(=O)N[C@@H](C)C(=O)NC(C)(C)C(=O)N[C@@H](CC(C)C)C(=O)N[C@@H](Cc1ccccc1)C(=O)N[C@H](C(=O)N[C@@H](CCC(=O)O)C(=O)N[C@@H](Cc1c[nH]c2ccccc12)C(=O)N[C@@H](CC(C)C)C(=O)N[C@@H](CCCCN)C(=O)N[C@@H](C)C(=O)NCC(=O)NCC(=O)N1CCC[C@H]1C(=O)N[C@@H](CO)C(=O)N[C@@H](CO)C(=O)NCC(=O)N[C@@H](C)C(=O)N1CCC[C@H]1C(=O)N1CCC[C@H]1C(=O)N1CCC[C@H]1C(=O)N[C@@H](CO)C(N)=O)[C@@H](C)CC)C(=O)O [SEQ ID NO: 27, Y-Aib-Q-G-T-F-T-S-D-L-S-I-Q-K(yE-x53)-D-K-R-A-A-Aib-L-F-I-E-W-L-K-A-G-G-P-S-S-G-A-P-P-P-S-NH2] (H-Y[Aib]QGTFTSDLSIQK([γGlu-Palmitoyl])DKRAA[Aib]LFIEWLKAGGPSSGAPPPS-NH2)	0.0147 nM	0.0826 nM	0.0389 nM

From patent US20140213513A1 (Sanofi, priority 2012, published 2014)
